The target in one experiment is T1, His6-GlgXEC (Escherichia coli, UniProt P15067).
T1 construct: made in house; host or cells: E. coli Rosetta (DE3), pET15b
Description: DRaCALA with [32P]-c-di-GMP, E. coli GlgX. The experiment is classed as binding. Particulars: 15 µg E. coli His6-GlgX. As to the method: (§1) For DRaCALA assays, purified His6-GlgX (15 μg) was mixed with 0.5 μl undiluted [^32P]-c-di-GMP (42 nM) (Hartmann Analytic GmbH, Braunschweig) in binding buffer (25 mM Tris pH 8; 150 mM NaCl; 2.5% (v/v) glycerol; 5 mM MgCl2) and the reaction was incubated at rt for 5 min. For competition assays, 100 μM nonlabeled nucleotides were added to the samples and incubated at rt for 5 min prior to the addition of [^32P]-c-di-GMP. Reactions (10 μl) were spotted on the same nitrocellulose membrane (Roth), air dried for 10 min and analyzed via phosphorimaging.
(a) 15 µg of purified E. coli His6-GlgX
167 or His6-Vnz25270, respectively, were mixed with 0.5 µl of [32P]-c-di-GMP (Hartmann Analytic
168 GmbH, Braunschweig) in binding buffer (25 mM Tris pH 8.0, 150 mM NaCl, 2.5% (v/v) glycerol
169 and 5 mM MgCl2). 10 µL of the reactions were spotted on the same nitrocellulose membrane (Roth),
170 air dried for 10 min and analyzed by phosphorimaging. (b, c) 10 µM purified His6-Vnz25270 (b) or
171 His6-GlgXE.coli (c) in 25 mM Tris pH 8.0, 150 mM NaCl, 2.5% (v/v) glycerol and 5 mM MgCl2 were
172 incubated without or with (1 mM) c-di-GMP. Reactions were analyzed in a Tycho NT.6
173 (NanoTemper Technologies) device.
(1 picture or pasted object on this page, not shown here)

The subject of a further experiment is His6-Vnz25270. Briefly: BCA reducing-end enzyme assay, Vnz25270. Particulars: 50 µM c-di-GMP, 0.05% glycogen from rabbit, 1 µM enzyme. The experiment is classed as biochemical, Streptomyces venezuelae. How it is done: (§2) Fig. 2 c-di-GMP stimulates glycogen breakdown activity of GlgX in vitro. a Bicinchoninic acid (BCA) in vitro enzyme assay. The purple copper bicinchoninate complex indicating GlgX-mediated generation of reducing ends in glycogen was quantified by photometric measurements at 562 nm. A562 values were converted into reducing ends [µM glucose equivalents] based on D-glucose as a standard. Reactions contained 0.05% (w/v) glycogen from rabbit, 1 µM GlgX and increasing concentrations of c-di-GMP (0–100 µM). Source data are provided as a Source data file. b BCA assay containing 0.05% of either glycogen from rabbit, pullulan, amylopectin from maize or amylose from potato as substrates. Where appropriate, 1 µM GlgX or 50 µM c-di-GMP were added to the reaction samples. Source data are provided as a Source data file. c BCA assay as in a with or without c-di-GMP (50 µM), 0.05% glycogen from rabbit (S) and 1 µM Vnz25270, GlgX, the active site mutants GlgXD342A, GlgXE378A, GlgXD342A+E378A, or the c-di-GMP-binding mutant variant GlgXDETR49-52 as indicated. […]
(§3) Hydrolysis of carbohydrates was assessed in vitro by measuring the accumulation of reducing sugar ends using the BCA assay[42] and D-glucose as a standard for calibration (Supplementary Fig. 11). […] 125 μl sample aliquots were transferred in duplicates to a 96 well plate and the absorbance at 562 nm was measured using a plate reader.

A further experiment relates to His6-GlgXD342A+E378A. Description: BCA reducing-end enzyme assay, GlgXD342A+E378A. The class given is biochemical, Streptomyces venezuelae. The following applies: 50 µM c-di-GMP, 0.05% glycogen from rabbit, 1 µM enzyme. How it is done: as §2, §3
Another experiment has as its system His6-GlgX. Briefly: DRaCALA with [32P]-c-di-GMP, wild-type GlgX. The class given is binding, Streptomyces venezuelae. As to the method: Fig. 1 GlgX binds c-di-GMP. a Quantification of c-di-GMP in S. venezuelae cell extracts using LC-MS/MS. Cells were harvested during late vegetative growth (8–10 h), transition to sporulation (12–16 h), and sporulation (18–20 h). Data are presented as the mean of biological replicates ±SD (n = 3). […] Source data are provided in the Source data file. c [^32P]-c-di-GMP binds to GlgX in DRaCALA assay indicated by dark spots in the center of the nitrocellulose membrane. For competition, excess (100 µM) of unlabeled c-di-GMP, c-di-AMP, or GTP was added to the reaction containing [^32P]-c-di-GMP and GlgX.
To determine if the interaction between Vnz29170 (herein called GlgX) and c-di-GMP is direct, we purified an N-terminally His6-tagged GlgX protein and performed nano differential scanning fluorimetry (nanoDSF) thermal shift assays. […] In addition, we used differential radial capillary action of ligand assays (DRaCALA), which allows visualization of protein-bound radiolabeled ligand as a central spot after the application of the protein-ligand mix onto nitrocellulose. Using DRaCALA we confirmed that GlgX from S. venezuelae binds ^32P-labeled c-di-GMP.
as §1

T1 sequence (P15067 whole entry): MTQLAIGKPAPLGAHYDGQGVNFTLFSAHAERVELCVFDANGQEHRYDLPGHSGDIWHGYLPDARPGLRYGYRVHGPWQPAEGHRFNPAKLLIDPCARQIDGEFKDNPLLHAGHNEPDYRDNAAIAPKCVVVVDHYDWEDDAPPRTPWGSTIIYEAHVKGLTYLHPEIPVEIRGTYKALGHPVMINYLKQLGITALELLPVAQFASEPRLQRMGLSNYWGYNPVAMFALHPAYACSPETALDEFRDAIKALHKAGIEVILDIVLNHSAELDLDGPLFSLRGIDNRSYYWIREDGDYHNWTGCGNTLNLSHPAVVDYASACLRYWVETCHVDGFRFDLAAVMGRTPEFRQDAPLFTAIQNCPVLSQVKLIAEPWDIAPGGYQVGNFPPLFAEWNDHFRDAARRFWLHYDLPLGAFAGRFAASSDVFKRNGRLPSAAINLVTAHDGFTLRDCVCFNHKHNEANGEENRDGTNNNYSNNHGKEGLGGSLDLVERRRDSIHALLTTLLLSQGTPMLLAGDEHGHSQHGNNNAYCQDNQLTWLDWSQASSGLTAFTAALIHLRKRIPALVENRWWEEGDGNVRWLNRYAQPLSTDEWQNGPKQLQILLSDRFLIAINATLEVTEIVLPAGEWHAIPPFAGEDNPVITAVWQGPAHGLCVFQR

Consider `Nc1nc2c(ncn2[C@@H]2O[C@@H]3CO[P@](=O)(O)O[C@H]4[C@@H](O)[C@H](n5cnc6c(=O)[nH]c(N)nc65)O[C@@H]4CO[P@](=O)(O)O[C@H]3[C@H]2O)c(=O)[nH]1` [c-di-GMP, bis-(3′−5′)-cyclic diguanosine monophosphate], for which the “binding of [32P]-c-di-GMP in DRaCALA” value at His6-GlgXEC is recorded as “did not detect any interactions”. In the experiment on His6-Vnz25270, the “effect of c-di-GMP on hydrolytic activity” value is on record as “remained at basal levels”. Moreover, in the experiment with His6-GlgXD342A+E378A, the “stimulation of enzyme activity by c-di-GMP” value is “could not be stimulated”. Besides, the “binding of 32P-labeled c-di-GMP in DRaCALA” value in the experiment with His6-GlgX (15 µg His6-GlgX, [32P]-c-di-GMP) is on record as “binds”. Further, the “competition with 32P-c-di-GMP for binding to GlgX” value in the experiment on His6-GlgX (excess (100 µM) unlabeled nucleotide) is “competed”.

The values above are taken from paper PMC9530166, “Allosteric regulation of glycogen breakdown by the second messenger cyclic di-GMP” (Nature Communications, 2022).
